Values of other authors as cited in US7135437B2, “Stable liquid pesticide compositions” (Monsanto Technology LLC, priority 2000, dated 2006).

Conditions: at 20° C.

For `O=C(O)CNCP(=O)([O-])O.[K+]` [glyphosate potassium salt], the “solubility in pure water, glyphosate acid equivalent” value is listed as “about 44 % glyphosate acid equivalent (a.e.) by weight” and the “solubility in pure water” value (as salt) is listed as “about 54 % by weight”.
